# According to ChEMBL document CHEMBL2380311 (Bioorg Med Chem Lett, 2013):
# Calls of active or inactive are those of the source. No cut-off for these calls is given here.
# What was measured:
# Acetylcholinesterase = Acetylcholinesterase (Electrophorus electricus, UniProt O42275)
# Description: Inhibition of electric eel AChE using acetylthiocholine iodide as substrate after 5 mins by Ellman's method
# Cholinesterase = Cholinesterase (Equus caballus, UniProt P81908)
# Description: Inhibition of equine serum BChE using butyrylthiocholine iodide as substrate after 5 mins by Ellman's method
# [1] = molecular target: Cholinesterase (Equus caballus) (UniProt P81908); assay: Mixed-type inhibition of equine serum BChE using butyrylthiocholine iodide as substrate by Lineweaver-Burk reciprocal plot analysis
# Sequence of Cholinesterase (Equus caballus) (P81908 whole entry): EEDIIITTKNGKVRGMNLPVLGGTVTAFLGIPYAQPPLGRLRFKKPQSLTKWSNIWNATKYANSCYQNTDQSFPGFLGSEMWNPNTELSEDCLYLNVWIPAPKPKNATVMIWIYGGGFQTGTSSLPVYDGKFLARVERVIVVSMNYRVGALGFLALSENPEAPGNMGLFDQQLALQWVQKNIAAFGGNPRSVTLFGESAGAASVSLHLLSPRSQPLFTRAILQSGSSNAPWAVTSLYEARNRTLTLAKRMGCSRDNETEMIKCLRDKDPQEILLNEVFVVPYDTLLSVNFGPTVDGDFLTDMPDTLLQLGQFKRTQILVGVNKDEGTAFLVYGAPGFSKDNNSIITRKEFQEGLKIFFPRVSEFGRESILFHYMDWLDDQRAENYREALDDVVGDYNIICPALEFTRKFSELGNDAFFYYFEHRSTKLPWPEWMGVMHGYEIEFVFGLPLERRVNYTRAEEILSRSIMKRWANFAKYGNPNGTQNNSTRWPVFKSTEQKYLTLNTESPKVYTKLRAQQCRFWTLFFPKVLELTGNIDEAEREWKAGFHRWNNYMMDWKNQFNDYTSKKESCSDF
# Sequence of Cholinesterase (P81908 whole entry): as above
# Sequence of Acetylcholinesterase (O42275 whole entry): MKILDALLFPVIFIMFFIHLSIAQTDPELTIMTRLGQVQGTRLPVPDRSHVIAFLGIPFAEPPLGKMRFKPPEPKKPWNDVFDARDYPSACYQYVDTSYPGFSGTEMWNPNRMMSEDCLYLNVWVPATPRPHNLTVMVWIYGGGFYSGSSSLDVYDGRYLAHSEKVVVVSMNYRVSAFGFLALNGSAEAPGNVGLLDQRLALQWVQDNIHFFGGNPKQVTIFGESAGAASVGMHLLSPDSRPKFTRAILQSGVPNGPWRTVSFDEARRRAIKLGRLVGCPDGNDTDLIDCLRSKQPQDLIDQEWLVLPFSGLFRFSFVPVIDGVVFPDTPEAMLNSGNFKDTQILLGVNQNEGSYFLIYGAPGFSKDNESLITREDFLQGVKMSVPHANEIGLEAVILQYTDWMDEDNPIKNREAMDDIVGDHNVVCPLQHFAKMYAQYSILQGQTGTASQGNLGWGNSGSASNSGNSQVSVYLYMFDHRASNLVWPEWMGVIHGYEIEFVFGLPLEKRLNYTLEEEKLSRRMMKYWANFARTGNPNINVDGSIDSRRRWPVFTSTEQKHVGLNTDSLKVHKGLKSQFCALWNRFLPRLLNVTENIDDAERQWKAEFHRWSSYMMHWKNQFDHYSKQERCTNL
smiles,measurement,setting,value
CC(C(=O)NCCCCNc1c2c(nc3ccccc13)CCCC2)c1ccc(-c2ccc(OCCO[N+](=O)[O-])cc2)c(F)c1 (stereo unspecified),IC50,Acetylcholinesterase,227 nM
same,IC50,Cholinesterase,13.9 nM
CC(C(=O)NCCCNc1c2c(nc3ccccc13)CCCC2)c1ccc(-c2ccccc2)c(F)c1 (stereo unspecified),IC50,Acetylcholinesterase,345 nM
same,IC50,Cholinesterase,13.9 nM
CC(C(=O)NCCNc1c2c(nc3ccccc13)CCCC2)c1ccc(-c2ccc(OCCCCCCO[N+](=O)[O-])cc2)c(F)c1 (stereo unspecified),IC50,Acetylcholinesterase,4310 nM
same,inhibition,[1],Active
same,IC50,Cholinesterase,7.6 nM
CC(C(=O)NCCCCNc1c2c(nc3ccccc13)CCCC2)c1ccc(-c2ccc(OCCCCO[N+](=O)[O-])cc2)c(F)c1 (stereo unspecified),IC50,Acetylcholinesterase,641 nM
same,IC50,Cholinesterase,7.7 nM
CC(C(=O)NCCNc1c2c(nc3ccccc13)CCCC2)c1ccc(-c2ccc(OCCO[N+](=O)[O-])cc2)c(F)c1 (stereo unspecified),IC50,Acetylcholinesterase,183 nM
same,IC50,Cholinesterase,9.9 nM
CC(C(=O)NCCCNc1c2c(nc3ccccc13)CCCC2)c1ccc(-c2ccc(OCCO[N+](=O)[O-])cc2)c(F)c1 (stereo unspecified),IC50,Acetylcholinesterase,112 nM
same,IC50,Cholinesterase,8.1 nM
CC(C(=O)NCCNc1c2c(nc3ccccc13)CCCC2)c1ccc(-c2ccc(OCCCO[N+](=O)[O-])cc2)c(F)c1 (stereo unspecified),IC50,Acetylcholinesterase,341 nM
same,IC50,Cholinesterase,10 nM
CC(C(=O)NCCNc1c2c(nc3ccccc13)CCCC2)c1ccc(-c2ccc(OCCCCO[N+](=O)[O-])cc2)c(F)c1 (stereo unspecified),IC50,Acetylcholinesterase,1350 nM
same,IC50,Cholinesterase,10.1 nM
CC(C(=O)NCCCNc1c2c(nc3ccccc13)CCCC2)c1ccc(-c2ccc(OCCCO[N+](=O)[O-])cc2)c(F)c1 (stereo unspecified),IC50,Acetylcholinesterase,189 nM
same,IC50,Cholinesterase,8.6 nM
CC(C(=O)NCCCCNc1c2c(nc3ccccc13)CCCC2)c1ccc(-c2ccccc2)c(F)c1 (stereo unspecified),IC50,Acetylcholinesterase,193 nM
same,IC50,Cholinesterase,11 nM
CC(C(=O)NCCCCNc1c2c(nc3ccccc13)CCCC2)c1ccc(-c2ccc(OCCCO[N+](=O)[O-])cc2)c(F)c1 (stereo unspecified),IC50,Acetylcholinesterase,261 nM
same,IC50,Cholinesterase,10.6 nM
CC(C(=O)NCCCNc1c2c(nc3ccccc13)CCCC2)c1ccc(-c2ccc(OCCCCO[N+](=O)[O-])cc2)c(F)c1 (stereo unspecified),IC50,Acetylcholinesterase,357 nM
same,IC50,Cholinesterase,7.9 nM
CC(C(=O)NCCNc1c2c(nc3ccccc13)CCCC2)c1ccc(-c2ccccc2)c(F)c1 (stereo unspecified),IC50,Acetylcholinesterase,715 nM
same,IC50,Cholinesterase,58.7 nM
CC(C(=O)NCCCCNc1c2c(nc3ccccc13)CCCC2)c1ccc(-c2ccc(OCCCCCCO[N+](=O)[O-])cc2)c(F)c1 (stereo unspecified),IC50,Acetylcholinesterase,1460 nM
same,IC50,Cholinesterase,3.9 nM
CC(C(=O)NCCCNc1c2c(nc3ccccc13)CCCC2)c1ccc(-c2ccc(OCCCCCCO[N+](=O)[O-])cc2)c(F)c1 (stereo unspecified),IC50,Acetylcholinesterase,1010 nM
same,IC50,Cholinesterase,8.1 nM
